From US9050353B2, “Use of icariin and epimedium flavonoids containing icariin to treat diseases associated with myelin sheath lesion” (Xuanwu Hospital of Capital Medical University, priority 2010, dated 2015)

What was measured:
[1] = tested on: experimental autoimmune encephalomyelitis (EAE) mice model; assay: Nervous function damage score in EAE mice model; format: in vivo, C57BL/6J mice; conditions: peak of attack, scale 0-5
Procedure: (§1) Preparation of mice model and administration: experimental autoimmune encephalomyelitis (EAE) mice model is an important tool for studying various human demyelinating diseases of nervous system. In the present experiment, the preparation of EAE mice model was performed by immunizing female C57BL/6J mice with myelin sheath oligodendroglial cell surface glycoprotein MOG35-55. That is, the mice were subcutaneously injected at dorsal part of spinal column with 0.2 mL of MOG35-55 antigen elixir, and 0.2 ml of bordetella pertussis solution was intraperitoneally injected at the time of immunization injection and 48 h thereafter, respectively. Icariin was intragastrically administered after the last injection of bordetella pertussis solution, for consecutive 3 weeks.
Nervous function test method: the ethological changes of mice were observed by two experimenters every day using blind method. Scoring standard: 0 score, absence of symptom; 1 score, decrease of tail tension, evident slight gait awkward; 2 score, disappearance of tail tension, moderate gait abnormal, deficient in maintaining gesture; 3 score, limb strength weak; 4 score, limb paralysis; 5 score, near death or died.

[2] = tested on: myeloid tissue myelinoclasis in EAE mice model; assay: Myelinoclasis of myeloid tissue, LFB staining, EAE mice; format: in vivo; conditions: scale 0-4
Procedure: as §1
Experimental objective: the myelinoclasis of myeloid tissue of EAE model mice were assayed by Luxol Fast Blue (LFB) staining, and the intervention effects of icariin on this pathological change were studied.
Experimental method: the mice were anesthetized with 10% chloral hydrate on the 29th day of experiment, fixed by perfusion of 4% paraformaldehyde, myeloid tissues were taken for making paraffin sections, section thickness […]. Stained with LFB, observed under microscope, and scored according to the following standard: 0 score, absence of myelinoclasis; 1 score, one small range of myelinoclasis; 2 score, 2 or 3 small ranges of myelinoclasis; 3 score, 1 to 2 large ranges of myelinoclasis; 4 score, large ranges of myelinoclasis accumulatively existing in 20% or more of white matter regions.

[3] = tested on: inflammatory cell infiltration in spinal cord tissues of EAE mice model; assay: Inflammatory cell infiltration in spinal cord, HE staining, EAE mice; format: in vivo; conditions: scale 0-4
Procedure: as §1
Experimental objective: the pathological changes of spinal cord in EAE model, especially inflammatory cell infiltration situations was assayed by hematoxylin-eosin (HE) staining test, and the intervention effects of […] on these pathological changes were observed.
Experimental method: the mice were anesthetized with 10% chloral hydrate on the 28th day of experiment, fixed by perfusion of 4% paraformaldehyde, spinal cord tissues were taken for making paraffin sections, section thickness […]. Stained with HE, observed under microscope, and scored according to the following standard: 0 score, absence of cell infiltration; 1 score, spinal meninge cell infiltration; 2 score, 1 to 4 small ranges of cell infiltration around vessels; 3 score, 5 or more small ranges of cell infiltration around vessels, or one or more accumulatively substantial large range of cell infiltration; 4 score, a large number of cell infiltration ranges accumulatively existing in 20% or more of white matter regions.

IL-1 = assay: Serum IL-1 content by ELISA, EAE mice; format: in vivo
Procedure: as §1
(§2) Experimental objective: interleukin-1 (IL-1) and IL-6 are important inflammatory cytokines, and have promoting effects on inflammatory reactions. This experiment used enzyme linked immunosorbent assay (ELISA) to measure contents of IL-1 and IL-6 in serums of EAE mice model, and the effects of icariin on these contents were observed.
(§3) Experimental method: mice were anesthetized with pentobarbital sodium, blood sample was taken from abdominal aorta, stood at room temperature for 2 h, centrifuged at 3000 rpm for 20 min, and supernatant was taken, stored at −80° C. for use. The operation was performed strictly according to the steps of specification of ELISA kit. Optical density was measured with ELIASA at 450 nm. The corresponding contents of IL-1 and IL-6 were calculated with the measured OD values on standard curves.

IL-6 = assay: Serum IL-6 content by ELISA, EAE mice; format: in vivo
Procedure: as §1, §2, §3

[4] = tested on: peripheral blood CD4+ and CD8+ T cells; assay: Peripheral blood T cell subgroup by flow cytometer, EAE mice; format: in vivo
Procedure: as §1
Experimental objective: one common feature of autoimmune diseases is the […]. In this experiment, the numbers of CD4+ and CD8+ cells in peripheral blood T cell subgroup of EAE mice mode were measured by flow cytometer (FACS), and the ratio of them was obtained; and the effects of icariin on these changes were observed.
Experimental method: mice were anesthetized with pentobarbital sodium, blood sample was taken from abdominal aorta, stood at room temperature for 2 h, centrifuged at 3000 rpm for 20 min, and cells were taken, added with anti-CD4+, CD8+ T cell antibodies with different markers, then the percentages of CD4+, CD8+ cells in T lymphocytes were measured by flow cytometer, and the CD4+/CD8+ T cells ratio was calculated.

CNPase = assay: Spinal cord CNPase by Western blot, EAE mice; format: in vivo
Procedure: as §1
(§4) Experimental objective: myelin sheath is formed with prominences of oligodendroglial cells. CNPase, myelin basic protein (MBP) are marker proteins of mature oligodendroglial cells. The present experiment was to observe the expression of CNPase and MBP to represent the content of oligodendroglial cells in spinal cord of EAE model mice by Western blot method; and to study the effects of icariin on it.
(§5) Experimental method: the mice were anesthetized and sacrificed, fresh spinal cord was taken on ice, total protein was extracted by cleavage on ice, to prepare Western blot sample, added separately with CNPase, MBP primary antibodies and incubated, added with corresponding secondary antibodies, ECL colorated, Kodak film exposed. Pictures were analyzed with Image J software and standardized with β-actin.

[5] = tested on: myelin basic protein (MBP); assay: Spinal cord MBP by Western blot, EAE mice; format: in vivo
Procedure: as §1, §4, §5

COc1ccc(-c2oc3c(CC=C(C)C)c(OC4OC(CO)C(O)C(O)C4O)cc(O)c3c(=O)c2OC2OC(C)C(O)C(O)C2O)cc1 (stereo not drawn) [icariin, 3-((6-deoxymannopyranosyl)oxy)-7-(glucopyranosyloxy)-5-hydroxy-2-(4-methoxyphenyl)-8-(3-methyl-2-butenyl)-4H-1-benzopyran-4-ketone]
Nervous function damage score ([1]; 3 mg/kg intragastric): 0.57 ± 0.49 | Nervous function damage score ([1]; 10 mg/kg intragastric): 0.32 ± 0.52 | Nervous function damage score ([1]; 30 mg/kg intragastric): 0.13 ± 0.34 | Myelinoclasis (LFB staining score) ([2]; 3 mg/kg): 0.91 ± 0.21 | Myelinoclasis (LFB staining score) ([2]; 10 mg/kg): 0.78 ± 0.16 | Myelinoclasis (LFB staining score) ([2]; 30 mg/kg): 0.66 ± 0.20 | Inflammatory cell infiltration (HE staining score) ([3]; 3 mg/kg): 2.08 ± 0.09 | Inflammatory cell infiltration (HE staining score) ([3]; 10 mg/kg): 1.58 ± 0.16 | Inflammatory cell infiltration (HE staining score) ([3]; 30 mg/kg): 1.18 ± 0.21 | IL-1 content (IL-1; 3 mg/kg): 0.119 ± 0.003 pg/mL | IL-1 content (IL-1; 10 mg/kg): 0.114 ± 0.001 pg/mL | IL-1 content (IL-1; 30 mg/kg): 0.113 ± 0.002 pg/mL | IL-6 content (IL-6; 3 mg/kg): 0.147 ± 0.011 pg/mL | IL-6 content (IL-6; 10 mg/kg): 0.142 ± 0.013 pg/mL | IL-6 content (IL-6; 30 mg/kg): 0.126 ± 0.011 pg/mL | CD4 + T cells ([4]; 3 mg/kg): 52.78 ± 3.30% | CD4 +/CD8 + ratio ([4]; 3 mg/kg): 1.25 ± 0.20 | CD8 + T cells ([4]; 3 mg/kg): 42.61 ± 3.10% | CD4 + T cells ([4]; 10 mg/kg): 58.89 ± 1.27 % | CD4 +/CD8 + ratio ([4]; 10 mg/kg): 1.62 ± 0.06 | CD8 + T cells ([4]; 10 mg/kg): 36.43 ± 0.38 % | CD4 + T cells ([4]; 30 mg/kg): 55.81 ± 1.41% | CD4 +/CD8 + ratio ([4]; 30 mg/kg): 1.39 ± 0.12 | CD8 + T cells ([4]; 30 mg/kg): 40.20 ± 1.79% | CNPase/actin Integration grey level (CNPase; 3 mg/kg): 1.16 ± 0.04 | CNPase/actin Integration grey level (CNPase; 10 mg/kg): 1.28 ± 0.07 | CNPase/actin Integration grey level (CNPase; 30 mg/kg): 1.33 ± 0.05 | MBP/actin Integration grey level ([5]; 3 mg/kg): 0.98 ± 0.13 | MBP/actin Integration grey level ([5]; 10 mg/kg): 1.07 ± 0.08 | MBP/actin Integration grey level ([5]; 30 mg/kg): 1.11 ± 0.06
